Measurements published in US20230338307A1, “PROPHYLACTIC AGENT, AMELIORATING AGENT, AND THERAPEUTIC AGENT FOR DRY EYE” (TSUBOTA LABORATORY, INC., priority 2020, published 2023).

How the values were obtained:
Assay type in all cases: in vivo, mice
dry eye model [1] = assay: Fluorescein staining score, dry eye model by 0.2% benzalkonium chloride instillation (Example 2); details: 0.003% (w/v) apocynin in PBS, 3 μL 4 times daily, two days after start; 0.2% benzalkonium chloride model; FIG. 4
From the text: After acclimating male C57BL6 mice ([…]) to the experimental environment, those with almost uniform weight values and no eye abnormalities were divided into the following 3 groups (n=3). • 7 weeks old/normal (non-dry eye group) • 7 weeks old/dry eye model+control (solvent eye drop) group • 7 weeks old/dry eye model+apocynin eye drop group The dry eye model was created by instilling a 0.2% benzalkonium chloride solution based on the method of Lin et al. (Non-patent Document 4). In this model, instillation of the 0.2% benzalkonium chloride solution causes dry eye symptoms such as shortened BUT, decreased tear volume, and corneal epithelial damage after 1 day of administration (Non-patent Document 4). After the benzalkonium chloride solution was instilled twice daily for 2 days, PBS alone was administered to the control group, and for the test group, a solution of apocynin 0.003% (w/v) suspended in PBS was administered to both eyes at 3 μL each, 4 times daily. Two days after the start of apocynin instillation, 1 μL of 0.1% fluorescein sodium solution was instilled into each of both eyes under isoflurane anesthesia, and stained images were taken under a blue filter using a slit lamp (Kowa Co., Ltd., SL-17). The fluorescein staining scores were analyzed (FIG. 4).

meibomian glands = assay: Meibomian gland silhouette and area, dry eye model by systemic erlotinib (Example 3); details: 0.003% (w/v) apocynin eye drop, 2 weeks after start of instillation
Experimental: After acclimating male C57BL6 mice (7 weeks old) to the experimental environment, those with almost uniform body weight values and no eye abnormalities were divided into the following 3 groups (n=4). • 7 weeks old/normal (non-dry eye group) • 7 weeks old/dry eye model+control (solvent eye drop) group • 7 weeks old/dry eye model+apocynin eye drop group The dry eye model was prepared by dissolving erlotinib at a concentration of 5 mg/ml in 0.5% methylcellulose solution and administering it by intraperitoneal injection at a concentration of 50 mg/kg/day daily from the start of the study. The solvent 0.5% methylcellulose solution was similarly administered to the normal non-administration group. After one week of administration of erlotinib, the control group received PBS alone, and the test group received a solution of 0.003% (w/v) apocynin suspended in PBS twice a day at both eyes with 3 μL each. One week after the start of instillation, 1 μL of 0.1% sodium fluorescein solution was instilled into each of both eyes under isoflurane anesthesia, and the BUT test was performed under a blue filter using a slit lamp (Kowa Co., Ltd., SL-17) (FIG. 5). […] In addition, the image analysis software ImageJ was used to quantify the area of the meibomian gland silhouette image of the upper eyelid image (FIG. 7).

dry eye model [2] = assay: Fluorescein staining score, benzalkonium chloride dry eye model, Comparative Study 1 (Example 4)
Experimental: After acclimating male C57BL6 mice (7 weeks old) to the experimental environment, those with almost uniform weight values and no eye abnormalities were divided into the following groups (n=4). • 7 weeks old/normal (non-dry eye group) • 7 weeks old/dry eye model+control (solvent eye drop) group • 7 weeks old/dry eye model+0.1% (w/v) apocynin eye drop group • 7 weeks old/dry eye model+0.5% (w/v) hyaluronic acid eye drop group A dry eye model was prepared by instilling the benzalkonium chloride solution at 3 μL each eye, twice a day for 8 days. After that, the control group received the 0.5% methylcellulose solution alone, and the test group received 0.1% (w/v) apocynin or 0.5% (w/v) hyaluronic acid suspended in the 0.5% methylcellulose solution twice a day for 15 days at 3 μL for each of both eyes. In Example 4, 1, 3, 6, 8, and 15 days after the start of instillation of the comparative test drug, 1 μL of the 0.1% fluorescein sodium solution was instilled into each of both eyes. Fluorescein-stained images were observed under a blue filter using a slit lamp (Kowa Co., Ltd., SL-17), and the degree of corneal epithelial damage was scored.

dry eye model [3] = assay: Schirmer test (tear volume), 0.2% benzalkonium chloride dry eye model, Comparative Study 2 (Example 5); details: 2 days after start, compared to hyaluronic acid and diquafosol sodium groups, FIG. 10
From the text: After acclimating male C57BL6 mice (7 weeks old) to the experimental environment, those with almost uniform weight values and no eye abnormalities were divided into the following groups (n=3 to 4). • 7 weeks old/normal (non-dry eye group) • 7 weeks old/dry eye model+control (solvent eye drop) group • 7 weeks old/dry eye model+0.003% (w/v) apocynin eye drop group • 7 weeks old/dry eye model+0.03% (w/v) apocynin eye drop group • 7 weeks old/dry eye model+3% diquafosol sodium eye drop group • 7 weeks old/dry eye model+0.5% (w/v) hyaluronic acid eye drop group A dry eye model was created by instilling 3 μL of the 0.2% benzalkonium chloride solution into each of both eyes twice a day for 8 days. Then, the control group received PBS alone, and the test group received 0.003% (w/v), 0.03% (w/v) apocynin and 0.5% (w/v) hyaluronic acid in PBS. The 3% diquafosol sodium eye drop was instilled into each of both eyes at 3 μL, twice a day for 9 days. Two days after the start of instillation of the comparative test drug, the Schirmer test was performed to evaluate the tear volume.

dry eye model [4] = assay: Fluorescein staining score, 0.2% benzalkonium chloride dry eye model, Comparative Study 2 (Example 5)
From the text: After acclimating male C57BL6 mice (7 weeks old) to the experimental environment, those with almost uniform weight values and no eye abnormalities were divided into the following groups (n=3 to 4). • 7 weeks old/normal (non-dry eye group) • 7 weeks old/dry eye model+control (solvent eye drop) group • 7 weeks old/dry eye model+0.003% (w/v) apocynin eye drop group • 7 weeks old/dry eye model+0.03% (w/v) apocynin eye drop group • 7 weeks old/dry eye model+3% diquafosol sodium eye drop group • 7 weeks old/dry eye model+0.5% (w/v) hyaluronic acid eye drop group A dry eye model was created by instilling 3 μL of the 0.2% benzalkonium chloride solution into each of both eyes twice a day for 8 days. Then, the control group received PBS alone, and the test group received 0.003% (w/v), 0.03% (w/v) apocynin and 0.5% (w/v) hyaluronic acid in PBS. The 3% diquafosol sodium eye drop was instilled into each of both eyes at 3 μL, twice a day for 9 days. In Example 5, 1, 2, 5, and 9 days after the start of instillation of the comparative test drug, 1 μL of 0.1% sodium fluorescein solution was instilled into each of both eyes. Fluorescein-stained images were observed under a blue filter using a slit lamp (Kowa Co., Ltd., SL-17), and the degree of corneal epithelial damage was scored.

`COc1cc(C(C)=O)ccc1O` [apocynin, 4-hydroxy-3-methoxyacetophenone] was tested, and the “corneal epithelial damage (fluorescein staining score)” value (dry eye model [1]) was “significantly improved”, the “missing parts of meibomian glands (silhouette image of upper eyelid)” value (meibomian glands; FIG. 7A) was “reduced the missing parts” and the “meibomian gland silhouette area (atrophy of the meibomian glands)” value (meibomian glands; ImageJ, FIG. 7B) was “significantly inhibits atrophy of the meibomian glands”. For the same molecule, the “fluorescein staining score (corneal damage)” value (dry eye model [2]; 3 days after start of instillation, compared to control, 0.1% (w/v) apocynin or 0.5% (w/v) hyaluronic acid twice a day, FIG. 9A) was “significantly reduced”, the “fluorescein staining score (corneal damage)” value (dry eye model [2]; 15 days after start of instillation, 0.1% (w/v) apocynin twice a day, FIG. 9B) was “significant decrease” and the “tear volume (Schirmer test)” value (dry eye model [3]; 0.003% apocynin eye drop) was “significantly improved”. For the same molecule, the “tear volume (Schirmer test)” value (dry eye model [3]; 0.03% apocynin eye drop) was “significantly improved”, the “fluorescein staining score (corneal epithelial damage)” value (dry eye model [4]; 0.003% apocynin eye drop, 9 days after start, compared to control, hyaluronic acid and diquafosol sodium groups, FIG. 11B) was “significantly improved” and the “fluorescein staining score (corneal epithelial damage)” value (dry eye model [4]; 0.03% apocynin eye drop, 9 days after start, compared to control, hyaluronic acid and diquafosol sodium groups, FIG. 11B) was “significantly improved”. For the same molecule, the “fluorescein staining score (corneal epithelial damage)” value (dry eye model [4]; two days after start, compared with control, 0.03% apocynin, 0.5% (w/v) hyaluronic acid or 3% diquafosol sodium twice a day, FIG. 11A) was “decreased significantly”.
